In ChEMBL document CHEMBL3217499, “Membrane disrupting antimicrobial peptide dendrimers with multiple amino termini” (Medchemcomm, 2012):
≈ marks a conversion by molar mass, not a printed value. Where a SMILES comes first, the peptide text is derived from it. Bridges are numbered along the chain shown (N, C = ends). Roman numbers before positions name the chains, in order. Side-chain parts run from the residue outwards. [ ]: non-standard residue; d: D form. The star is where a group is joined. LeuLys(Leu) = CC(C)C[C@H](N)C(=O)NCCCC[C@H](NC(=O)[C@@H](N)CC(C)C)C(=O)*; X2 = CC[C@H](C)[C@H](N)C(=O)NCCCC[C@H](NC(=O)[C@@H](N)[C@@H](C)CC)C(=O)*; X1 = CC(C)C[C@H](N)C(=O)NC[C@H](NC(=O)[C@@H](N)CC(C)C)C(=O)*; Dap = NC[C@H](N)C(=O)O

Assays:
Pseudomonas aeruginosa [1] = test: Antibacterial activity against Pseudomonas aeruginosa PAO1 after 18 to 24 hrs by broth microdilution assay; type: functional
Pseudomonas aeruginosa [2] = test: Antibacterial activity against Pseudomonas aeruginosa K799/WT by broth microdilution assay; type: functional
Pseudomonas aeruginosa [3] = test: Antibacterial activity against Pseudomonas aeruginosa PAO1 HS by broth microdilution assay; type: functional
Enterococcus faecalis [4] = test: Antibacterial activity against Enterococcus faecalis Van BE80-8 by broth microdilution assay; type: functional
Bacillus subtilis = test: Antibacterial activity against Bacillus subtilis BR151 after 18 to 24 hrs by broth microdilution assay; type: functional
Enterococcus faecium [5] = test: Antibacterial activity against Enterococcus faecium ATCC 19434 by broth microdilution assay; type: functional
Pseudomonas aeruginosa [6] = test: Antibacterial activity against Pseudomonas aeruginosa ATCC 27853 by broth microdilution assay; type: functional
Enterococcus faecium [7] = test: Antibacterial activity against Enterococcus faecium Van BE38-10 by broth microdilution assay; type: functional
[8] = Hemolytic activity in human RBC after 4 hrs; type: ADME, cell-based; conditions: erythrocyte
Staphylococcus aureus [9] = test: Antibacterial activity against Staphylococcus aureus 887 by broth microdilution assay; type: functional
Staphylococcus aureus [10] = test: Antibacterial activity against Staphylococcus aureus ATCC 29213 by broth microdilution assay; type: functional
Escherichia coli [11] = test: Antibacterial activity against Escherichia coli DC2 by broth microdilution assay; type: functional
Pseudomonas aeruginosa [12] = test: Antibacterial activity against Pseudomonas aeruginosa K799/61 by broth microdilution assay; type: functional
Escherichia coli [13] = test: Antibacterial activity against Escherichia coli ATCC 25922 by broth microdilution assay; type: functional
Staphylococcus aureus [14] = test: Antibacterial activity against methicillin-resistant Staphylococcus aureus 42080 by broth microdilution assay; type: functional
[15] = test system: Staphylococcus epidermidis; test: Antibacterial activity against Staphylococcus epidermidis J147 by broth microdilution assay; type: functional
Enterococcus faecalis [16] = test: Antibacterial activity against Enterococcus faecalis ATCC 29212 by broth microdilution assay; type: functional
Escherichia coli [17] = test: Antibacterial activity against Escherichia coli HB101 (PAT 266) by broth microdilution assay; type: functional
Pseudomonas aeruginosa [18] = test: Antibacterial activity against Pseudomonas aeruginosa 8S/H by broth microdilution assay; type: functional
[19] = test system: Staphylococcus epidermidis; test: Antibacterial activity against Staphylococcus epidermidis ATCC 14990 by broth microdilution assay; type: functional
Escherichia coli [20] = test: Antibacterial activity against Escherichia coli DH5[alpha] after 18 to 24 hrs by broth microdilution assay; type: functional
Staphylococcus aureus [21] = test: Antibacterial activity against Staphylococcus aureus ATCC 25923 by broth microdilution assay; type: functional

| SMILES | MIC (Pseudomonas aeruginosa [1]) [µg/mL] | MIC (Pseudomonas aeruginosa [2]) [µg/mL] | MIC (Pseudomonas aeruginosa [3]) [µg/mL] | MIC (Enterococcus faecalis [4]) [µg/mL] | MIC (Bacillus subtilis) [µg/mL] | MIC (Enterococcus faecium [5]) [µg/mL] | MIC (Pseudomonas aeruginosa [6]) [µg/mL] | MIC (Enterococcus faecium [7]) [µg/mL] | MHC [8] [µg/mL] | MIC (Staphylococcus aureus [9]) [µg/mL] | MIC (Staphylococcus aureus [10]) [µg/mL] | MIC (Escherichia coli [11]) [µg/mL] | MIC (Pseudomonas aeruginosa [12]) [µg/mL] | MIC (Escherichia coli [13]) [µg/mL] | MIC (Staphylococcus aureus [14]) [µg/mL] | MIC [15] [µg/mL] | MIC (Enterococcus faecalis [16]) [µg/mL] | MIC (Escherichia coli [17]) [µg/mL] | MIC (Pseudomonas aeruginosa [18]) [µg/mL] | MIC (Escherichia coli [20]) [µg/mL] | also measured |
| --- | --- | --- | --- | --- | --- | --- | --- | --- | --- | --- | --- | --- | --- | --- | --- | --- | --- | --- | --- | --- | --- |
| CC[C@H](C)[C@H](N)C(=O)NCCCC[C@H](NC(=O)[C@@H](N)[C@@H](C)CC)C(=O)N[C@H](C(=O)NCCCC[C@H](NC(=O)[C@@H](NC(=O)[C@H](CCCCNC(=O)[C@@H](N)[C@@H](C)CC)NC(=O)[C@@H](N)[C@@H](C)CC)[C@@H](C)CC)C(=O)N[C@@H](Cc1ccccc1)C(=O)NCCCC[C@H](NC(=O)[C@H](Cc1ccccc1)NC(=O)[C@H](CCCCNC(=O)[C@@H](NC(=O)[C@H](CCCCNC(=O)[C@@H](N)[C@@H](C)CC)NC(=O)[C@@H](N)[C@@H](C)CC)[C@@H](C)CC)NC(=O)[C@@H](NC(=O)[C@H](CCCCNC(=O)[C@@H](N)[C@@H](C)CC)NC(=O)[C@@H](N)[C@@H](C)CC)[C@@H](C)CC)C(=O)N[C@@H](CCCCN)C(N)=O)[C@@H](C)CC (I: H-IK(Ile)IK([Ile-X2])FKK-NH2 / II: H-IK(Ile)IK([Ile-X2])F; amide I:6-II:C) | > 100 | > 32 | > 32 | > 32 | 4.4 (≈ 1.63 µM) | 24 (≈ 8.91 µM) | > 32 | 8 (≈ 2.97 µM) | 20 | 16 (≈ 5.94 µM) | > 32 | > 32 | > 32 | > 32 | > 32 | > 32 | > 32 | > 32 | > 32 | 79 (≈ 29.3 µM) | MIC [19]: 32 µg/mL (≈ 11.9 µM); MIC (Staphylococcus aureus [21]): > 32 µg/mL |
| CC(C)C[C@H](N)C(=O)NCCCC[C@H](NC(=O)[C@@H](N)CC(C)C)C(=O)N[C@@H](CCC(N)=O)C(=O)NCCCC[C@H](NC(=O)[C@H](CCC(N)=O)NC(=O)[C@H](CCCCNC(=O)[C@@H](N)CC(C)C)NC(=O)[C@@H](N)CC(C)C)C(=O)N[C@@H](Cc1ccccc1)C(=O)NCCCC[C@H](NC(=O)[C@H](Cc1ccccc1)NC(=O)[C@H](CCCCNC(=O)[C@H](CCC(N)=O)NC(=O)[C@H](CCCCNC(=O)[C@@H](N)CC(C)C)NC(=O)[C@@H](N)CC(C)C)NC(=O)[C@H](CCC(N)=O)NC(=O)[C@H](CCCCNC(=O)[C@@H](N)CC(C)C)NC(=O)[C@@H](N)CC(C)C)C(=O)N[C@@H](CCCCN)C(N)=O (I: H-LK(Leu)QK([Gln-LeuLys(Leu)])FKK-NH2 / II: H-LK(Leu)QK([Gln-LeuLys(Leu)])F; amide I:6-II:C) | > 100 | > 32 | > 32 | > 32 | > 100 | – | > 32 | – | 250 | – | > 32 | – | > 32 | > 32 | > 32 | – | > 32 | – | > 32 | > 100 | – |
| CC(C)C[C@H](N)C(=O)NC[C@H](NC(=O)[C@@H](N)CC(C)C)C(=O)N[C@@H](Cc1ccccc1)C(=O)NC[C@H](NC(=O)[C@H](Cc1ccccc1)NC(=O)[C@H](CNC(=O)[C@@H](N)CC(C)C)NC(=O)[C@@H](N)CC(C)C)C(=O)N1CCC[C@H]1C(=O)NC[C@H](NC(=O)[C@@H]1CCCN1C(=O)[C@H](CNC(=O)[C@H](Cc1ccccc1)NC(=O)[C@H](CNC(=O)[C@@H](N)CC(C)C)NC(=O)[C@@H](N)CC(C)C)NC(=O)[C@H](Cc1ccccc1)NC(=O)[C@H](CNC(=O)[C@@H](N)CC(C)C)NC(=O)[C@@H](N)CC(C)C)C(=O)N[C@@H](CCCCN)C(N)=O (I: H-L[Dap](Leu)F[Dap]([Phe-X1])P[Dap]K-NH2 / II: H-L[Dap](Leu)F[Dap]([Phe-X1])P; amide I:6-II:C) | 20 (≈ 8.21 µM) | > 32 | > 32 | > 32 | 3.1 (≈ 1.27 µM) | – | > 32 | – | > 2000 | – | > 32 | – | > 32 | > 32 | > 32 | – | > 32 | – | > 32 | 15 (≈ 6.16 µM) | – |
| CC1(C)S[C@@H]2[C@H](NC(=O)[C@H](N)c3ccccc3)C(=O)N2[C@H]1C(=O)O [AMPICILLIN] | – | – | – | – | – | 4 (≈ 11.4 µM) | – | > 32 | – | > 32 | – | 1 (≈ 2.86 µM) | – | – | – | 1.5 (≈ 4.29 µM) | – | > 32 | – | – | MIC [19]: 1 µg/mL (≈ 2.86 µM); MIC (Staphylococcus aureus [21]): 0.13 µg/mL (≈ 0.372 µM) |
